Data from patent US20070142317A1, “Topical composition for treatment of skin disorders” (QLT USA, Inc., priority 2003, published 2007).
pIC50: −log10 of the molar value. Values joined by “and” are separate entries in the source; they are usually repeats but may differ in a detail not shown here. Equal values may be shown once. Read-outs that look alike come from different tables or passages of the source.

How the values were obtained:
U937 monocytoid cells [1] = assay: TUNEL assay, dAd, adenosine and adenine dose ranging (Example 24); format: cell-based; conditions: for % FITC Shift / % PI Shift: 2 days
Experimental: U937 monocytoid cells were cultured in the presence of dAd at various concentrations of dAd (0, 50, 75, 100, 250 and 1000 micromoles/liter). The cells were incubated in dAd for 2 days. At the end of the treatment period, the cells were harvested for analysis by a TUNEL assay, a flow-cytometry-based method to quantify the percentage of cells that have undergone apoptosis. The level of apoptosis expressed as “% FITC shift”. The level of cell cycle arrest is expressed as “% PI shift”. As a positive control, the cells were exposed to 5 mM camptothecin for 2 days.

U937 monocytoid cells [2] = assay: TUNEL assay, dAd added at different times after dCF wash-out (Example 22); format: cell-based; conditions: 0 μM dCF + camptothecin positive control, time after wash-out 0 hr (5 mM printed elsewhere in the source)
U937 monocytoid cells [3] = assay: TUNEL assay, simultaneous exposure to dCF and dAd (Example 22); format: cell-based; conditions: camptothecin positive control, 2 days (5 mM printed elsewhere in the source)
Experimental: Methods Simultaneous Exposure—U937 monocytoid cells were cultured in the presence of 0, 1, 2.5, 10, 20, 50, 100, 150, 200, and 250 μM dAdo for 2 days. […] At the end of the treatment period, the cells were harvested for analysis by a TUNEL assay, a flow-cytometry-based method to quantify the percentage of cells that have undergone apoptosis. The level of apoptosis is expressed as “% FITC shift”. As a positive control, the cells were exposed to 5 mM camptothecin for 2 days.

U-937 cells [4] = assay: Cytokine secretion by ELISA (Example 31); format: cell-based; conditions: for effect on suppressing the production of IL-6: 46 hours
Experimental: (§1) In a search for a topical agent that can locally deplete levels of T-cells in the skin, apoptotic compounds were evaluated for their mechanisms of action. The ability that […] induce apoptosis by the same mechanisms was examined by cytokine secretion. […] Caspase-3 and cytokine (IL-2, IL-6, TNF, and IFN-γ) levels were determined and compared to controls at 23 and 46 hours. FdA was incorporated to evaluate the effect of the halogen group and Ara-C for its overlapping mechanisms of action. […] At the end of the treatment period, the cells were harvested and Caspase-3 induction was determined using a flow-cytometry-based method to quantify the percentage of cells that induced Caspase-3. The level of apoptosis is expressed as “% FITC shift”. Cytokine secretion (IL-2, IL-6, TNF, and IFN-γ) was measured at the same time by ELISA and is expressed in pg/mL. […]

Jurkat cells [5] = assay: Cytokine secretion by ELISA (Example 31); format: cell-based
Experimental: In a search for a topical agent that can locally deplete levels of T-cells in the skin, apoptotic compounds were evaluated for their mechanisms of action. The ability that […] induce apoptosis by the same mechanisms was examined by cytokine secretion. […] At the end of the treatment period, the cells were harvested and Caspase-3 induction was determined using a flow-cytometry-based method to quantify the percentage of cells that induced Caspase-3. The level of apoptosis is expressed as “% FITC shift”. Cytokine secretion (IL-2, IL-6, TNF, and IFN-γ) was measured at the same time by ELISA and is expressed in pg/mL.

Jurkat T cells = assay: TUNEL apoptosis assay, sequential exposure to dCF then dAd (Example 21); format: cell-based; conditions: Camptothecin 5 uM, positive control
Experimental: (§2) Thus, it is hypothesized that the sequential exposure of the cells to dCF, followed by deoxyadenosine (dAd) will lead to greater levels of apoptosis than dCF alone. […] The cells were then incubated in dAd for 2 more days. At the end of the treatment period, the cells were harvested for analysis by a TUNEL assay, a flow-cytometry-based method to quantify the percentage of cells that have undergone apoptosis. The level of apoptosis is expressed as “% FITC shift”. As a positive control, the cells were exposed to 5 mM camptothecin for 2 days.

U937 monocytoid cells [6] = assay: as above; format: cell-based; conditions: Camptothecin 5 uM, positive control
Experimental: as §2

U937 monocytoid cells [7] = assay: TUNEL assay, dAd added at different times after dCF wash-out (Example 22); format: cell-based; conditions: 0 μM dCF + camptothecin positive control, time after wash-out 0 hr (5 mM printed elsewhere in the source); remark: listed apart in the source
Experimental: At 0, 6, 24, and 48 hours, 50 μM dAd was added and the cells were incubated for an additional 2 days. At the end of the treatment period, the cells were harvested for analysis by a TUNEL assay, a flow-cytometry-based method to quantify the percentage of cells that have undergone apoptosis. The level of apoptosis is expressed as “% FITC shift”. As a positive control, the cells were exposed to 5 mM camptothecin for 2 days.

[8] = molecular target: T1, ribonucleotide reductase (RNR) (Homo sapiens, UniProt P23921); conditions: cited from earlier work
T1 sequence (P23921 1-792): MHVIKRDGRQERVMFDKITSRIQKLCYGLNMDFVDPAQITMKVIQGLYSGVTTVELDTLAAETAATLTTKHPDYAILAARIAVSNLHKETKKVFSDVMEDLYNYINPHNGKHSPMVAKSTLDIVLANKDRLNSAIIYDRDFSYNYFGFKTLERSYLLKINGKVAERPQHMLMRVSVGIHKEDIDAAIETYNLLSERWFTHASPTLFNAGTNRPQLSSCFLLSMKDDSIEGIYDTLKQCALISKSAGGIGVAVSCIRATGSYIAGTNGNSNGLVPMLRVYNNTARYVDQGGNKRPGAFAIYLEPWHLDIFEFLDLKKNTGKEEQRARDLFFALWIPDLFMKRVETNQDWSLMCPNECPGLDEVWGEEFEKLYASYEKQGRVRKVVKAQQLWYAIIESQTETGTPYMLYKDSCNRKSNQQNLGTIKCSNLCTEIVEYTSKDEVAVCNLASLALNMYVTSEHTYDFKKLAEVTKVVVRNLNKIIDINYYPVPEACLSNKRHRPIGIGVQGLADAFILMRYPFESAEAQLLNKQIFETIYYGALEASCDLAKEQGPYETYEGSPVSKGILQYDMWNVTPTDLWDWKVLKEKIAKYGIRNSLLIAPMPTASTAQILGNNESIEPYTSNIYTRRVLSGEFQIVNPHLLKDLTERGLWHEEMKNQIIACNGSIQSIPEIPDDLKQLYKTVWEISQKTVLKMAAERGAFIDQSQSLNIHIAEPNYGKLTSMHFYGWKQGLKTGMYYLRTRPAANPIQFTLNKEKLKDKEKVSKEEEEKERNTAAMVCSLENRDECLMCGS

dCK = dCK (Homo sapiens, UniProt P27707); conditions: read-out: Km for dCK; cited from earlier work
Chain of dCK (P27707 whole entry, species assumed): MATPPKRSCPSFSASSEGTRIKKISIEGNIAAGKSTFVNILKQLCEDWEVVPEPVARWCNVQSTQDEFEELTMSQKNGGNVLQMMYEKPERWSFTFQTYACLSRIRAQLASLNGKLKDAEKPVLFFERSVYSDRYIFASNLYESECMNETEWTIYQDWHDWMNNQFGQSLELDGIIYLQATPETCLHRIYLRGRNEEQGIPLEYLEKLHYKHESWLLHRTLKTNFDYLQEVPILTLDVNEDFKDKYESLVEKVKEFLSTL

Jurkat cells [9] = assay: Caspase-3 induction by flow cytometry (Example 31); format: cell-based; conditions: drug 1 μM, PHA-activated cells
Experimental: as §1

U-937 cells [10] = assay: Caspase-3 induction by flow cytometry (Example 31); format: cell-based; conditions: drug 1 μM, LPS-activated cells
Experimental: as §1

[11] = systemic, deamination by CDA; cited from earlier work
ADA = ADA (Homo sapiens, UniProt P00813); conditions: cited from earlier work
Chain of ADA (P00813 whole entry, species assumed): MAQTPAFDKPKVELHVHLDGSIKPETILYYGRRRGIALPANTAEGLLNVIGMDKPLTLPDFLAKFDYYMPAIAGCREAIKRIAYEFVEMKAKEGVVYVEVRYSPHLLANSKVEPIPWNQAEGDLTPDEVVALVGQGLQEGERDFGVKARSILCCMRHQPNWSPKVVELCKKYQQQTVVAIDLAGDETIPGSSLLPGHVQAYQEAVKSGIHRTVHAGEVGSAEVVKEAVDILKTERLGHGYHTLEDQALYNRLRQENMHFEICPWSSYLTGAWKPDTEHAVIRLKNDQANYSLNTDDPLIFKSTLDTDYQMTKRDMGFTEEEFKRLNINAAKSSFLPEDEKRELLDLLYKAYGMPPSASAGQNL

[12] = for systemic exposure per day: topical 1.0% (10 mg/g), 7% systemic absorption
Description: (§3) Systemic absorption is a concern, because of the potential for serious adverse events, such as lymphopenia and renal toxicity. At oncology doses, these adverse reactions are usually minimized, but the therapeutic index is narrow. Another factor that plays a role in the safety of the formulation is the amount of product administered each day. Approximately 4 grams, 12 grams, and 40 grams of a topical formulation are estimated to cover 10%, 30%, and 100% of the body surface area.
as §3
as §3, with “Calculations of safety margins have been performed, based upon this assumption and the known toxicity profile of F-Ara-A when administered IV for oncology indications. Systemic” for “Systemic”
as §3

[13] = 23 hr, drug 5 μM, positive control
[14] = 46 hr, drug 5 μM, positive control
[15] = Camptothecin 5 uM, positive control
[16] = 23 hr, drug 1 μM, LPS-activated cells
[17] = 46 hr, drug 1 μM, LPS-activated cells

Nc1[nH]cnc2ncnc1-2 [Adenine, 1H-Purin-6-amine]
effect on apoptosis or cell cycle (U937 monocytoid cells [1]; at 1000 uM): slight hint of an effect | % FITC Shift (U937 monocytoid cells [1]; drug 50 uM, no dCF): 0.4% | % PI Shift (U937 monocytoid cells [1]; drug 50 uM, no dCF): 2.0% | % FITC Shift (U937 monocytoid cells [1]; drug 75 uM, no dCF): 0.6% | % PI Shift (U937 monocytoid cells [1]; drug 75 uM, no dCF): 2.4% | % FITC Shift (U937 monocytoid cells [1]; drug 100 uM, no dCF): 0.3% | % PI Shift (U937 monocytoid cells [1]; drug 100 uM, no dCF): 2.5% | % FITC Shift (U937 monocytoid cells [1]; drug 250 uM, no dCF): 0.7% | % PI Shift (U937 monocytoid cells [1]; drug 250 uM, no dCF): 3.4% | % FITC Shift (U937 monocytoid cells [1]; drug 1000 uM, no dCF): 2.9% | % PI Shift (U937 monocytoid cells [1]; drug 1000 uM, no dCF): 9.5% | effect on apoptosis or cell cycle (U937 monocytoid cells [1]; up to 250 uM): little or no effect

Nc1ncnc2c1ncn2[C@@H]1O[C@H](CO)[C@@H](O)[C@H]1O [Adenosine, 9-β-D-Ribofuranosyl-9H-purin-6-amine]
effect on apoptosis or cell cycle (U937 monocytoid cells [1]; at 1000 uM): slight hint of an effect | % FITC Shift (U937 monocytoid cells [1]; drug 50 uM, no dCF): 0.7% | % PI Shift (U937 monocytoid cells [1]; drug 50 uM, no dCF): 1.7% | % FITC Shift (U937 monocytoid cells [1]; drug 75 uM, no dCF): 0.6% | % PI Shift (U937 monocytoid cells [1]; drug 75 uM, no dCF): 2.1% | % FITC Shift (U937 monocytoid cells [1]; drug 100 uM, no dCF): 0.6% | % PI Shift (U937 monocytoid cells [1]; drug 100 uM, no dCF): 2.0% | % FITC Shift (U937 monocytoid cells [1]; drug 250 uM, no dCF): 0.6% | % PI Shift (U937 monocytoid cells [1]; drug 250 uM, no dCF): 1.9% | % FITC Shift (U937 monocytoid cells [1]; drug 1000 uM, no dCF): 2.9% | % PI Shift (U937 monocytoid cells [1]; drug 1000 uM, no dCF): 7.9% | effect on apoptosis or cell cycle (U937 monocytoid cells [1]; up to 250 uM): little or no effect

CC[C@@]1(O)C(=O)OCc2c1cc1n(c2=O)Cc2cc3ccccc3nc2-1 [Camptothecin]
% PI Shift (U937 monocytoid cells [2]): 29.2% | % FITC Shift (U937 monocytoid cells [3]): 79.5% | % PI Shift (U937 monocytoid cells [3]): 43.4% | Cytokine Secretion IL-6 pg/ml Mean of 3 Replicates (U-937 cells [4]; [13]): 0 pg/mL | Cytokine Secretion IL-6 pg/ml Mean of 3 Replicates (U-937 cells [4]; [14]): 0 pg/mL | % FITC Shift (U937 monocytoid cells [1]; [15]): 72.8% | % PI Shift (U937 monocytoid cells [1]; [15]): 32.2% | Cytokine Secretion IL-2 pg/ml Mean of 3 Replicates (Jurkat cells [5]; [13]): 0 pg/mL | Cytokine Secretion IL-2 pg/ml Mean of 3 Replicates (Jurkat cells [5]; [14]): 0 pg/mL | % FITC Shift (Jurkat T cells): 80.2% | % FITC Shift (U937 monocytoid cells [6]): 93.4% | % FITC Shift (U937 monocytoid cells [7]): 84.3%

Nc1nc(Cl)nc2c1ncn2[C@H]1C[C@H](O)[C@@H](COP(=O)(O)OP(=O)(O)OP(=O)(O)O)O1 [CdATP, 2-chloro-2′-deoxyadenosine-5′-triphosphate]
pIC50 [8]: 7.22

Nc1nc(Cl)nc2c1ncn2[C@@H]1O[C@H](CO)[C@@H](O)[C@@H]1F [Clofarabine]
Km (dCK): 5 µM

Nc1nc(F)nc2c1ncn2C1OC(COP(=O)(O)OP(=O)(O)OP(=O)(O)O)C(O)C1O (centres unmarked) [F-Ara-ATP]
pIC50 [8]: ~6.22

Nc1nc(F)nc2c1ncn2[C@H]1C[C@H](O)[C@@H](CO)O1 [FdA, 2-fluoro-2′-deoxyadenosine]
Cytokine Secretion IL-6 pg/ml Mean of 3 Replicates (U-937 cells [4]; [16]): 7 pg/mL | effect on suppressing the production of IL-6 (U-937 cells [4]; drug 1 μM): little effect | Cytokine Secretion IL-6 pg/ml Mean of 3 Replicates (U-937 cells [4]; [17]): 7 pg/mL and 8 pg/mL | Cytokine Secretion IL-2 pg/ml Mean of 3 Replicates (Jurkat cells [5]; 23 hr, drug 1 μM, PHA-activated cells): 41 pg/mL | Cytokine Secretion IL-2 pg/ml Mean of 3 Replicates (Jurkat cells [5]; 46 hr, drug 1 μM, PHA-activated cells): 72 pg/mL | IL-2 concentration (Jurkat cells [5]; Jurkat cells activated by PHA, 46 hours, drug 1 μM): 72 pg/mL | Caspase-3 Induction % FITC Shift - Mean of 3 Replicates (Jurkat cells [9]; 23 hr): 75% | Caspase-3 Induction % FITC Shift - Mean of 3 Replicates (Jurkat cells [9]; 46 hr): 95% | Caspase-3 Induction % FITC Shift - Mean of 3 Replicates (U-937 cells [10]; 23 hr): 67% | Caspase-3 Induction % FITC Shift - Mean of 3 Replicates (U-937 cells [10]; 46 hr): 51%

Nc1ccn([C@@H]2O[C@H](CO)[C@@H](O)C2(F)F)c(=O)n1 [Gemcitabine]
half-life [11]: 10 to 20 min

COc1nc(N)nc2c1ncn2[C@@H]1O[C@H](CO)[C@@H](O)[C@@H]1O [Nelarabine]
Km to ADA relative to that of adenosine (ADA): less than 1%

Nc1ccn([C@@H]2O[C@H](CO)[C@@H](O)[C@@H]2O)c(=O)n1 [ara-C, Cytosine 1β-D-Arabinofuranoside]
Cytokine Secretion IL-6 pg/ml Mean of 3 Replicates (U-937 cells [4]; [16]): 7 pg/mL | effect on suppressing the production of IL-6 (U-937 cells [4]; drug 1 μM): little effect | Cytokine Secretion IL-6 pg/ml Mean of 3 Replicates (U-937 cells [4]; [17]): 7 pg/mL | times safer than the oncology dose [12]: 9643 | systemic exposure per day ([12]; 10% BSA (4 grams)): 2.8 mg | systemic exposure per day ([12]; 30% BSA (12 grams)): 8.4 mg | systemic exposure per day ([12]; 100% BSA (40 grams)): 28 mg

Nc1ccn(C2OC(COP(=O)(O)OP(=O)(O)O)C(O)C2(F)F)c(=O)n1 (centres unmarked) [gemcitabine diphosphate]
pIC50 [8]: 6.70
